Measurements from patent publication US9708314B2, “Heterocyclic amide compound” (NISSAN CHEMICAL INDUSTRIES, LTD., priority 2013, dated 2017).

What was measured:
[1] = tested on: Scirpus juncoides; assay: Test Example 2: herbicidal activity, application during weed generation in submerged conditions; format: in vivo; conditions: Eighteenth Table
Summary of the method: (§1)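 Scored three weeks post-application on a 0–5 scale (5: ≥90% herbicidal ratio, almost withered; 0: ≤5%). Plants raised from mixed-sown seed in submerged alluvial soil (4 cm water), 25–30 °C greenhouse; water-diluted emulsion applied onto water surface at one- to two-leaf stage, dose in g/ha.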

[2] = tested on: Monochoria vaginalis; assay: as above; format: in vivo; conditions: Eighteenth Table
Summary of the method: as §1

[3] = tested on: Echinochloa oryzacola Vasing.; assay: as above; format: in vivo; conditions: Eighteenth Table
Summary of the method: as §1

[4] = tested on: Stellaria media; assay: Test Example 4: herbicidal effect by application to foliage (diluvial soil, plastic box); format: in vivo; conditions: for P (Stellaria media) herbicidal effect: application herbicide amount 320 g/ha; for P (Stellaria media) herbicidal effect grade: foliage application
Summary of the method: (§2)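 Seeds sown in sterilized diluvial soil, covered ~1.5 cm, grown 14 days in greenhouse at 25° C. to 30° C. Emulsion formulation diluted in water to set rate (g/ha) and sprayed onto stems and leaves. Effect scored visually 3 weeks later on 0–5 scale (5 = ≥90% herbicidal ratio, 0 = ≤5%).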

[5] = tested on: Amaranthus retroflexus; assay: as above; format: in vivo; conditions: for N (Amaranthus retroflexus) herbicidal effect: application herbicide amount 320 g/ha; for N (Amaranthus retroflexus) herbicidal effect grade: foliage application
Summary of the method: as §2

[6] = application herbicide amount 320 g/ha
[7] = application herbicide amount 288 g/ha
[8] = Application herbicide amount 288 g/ha
[9] = application herbicide amount 192 g/ha
[10] = application herbicide amount 141 g/ha
[11] = application to foliage, 141 g/ha

| SMILES | B (Scirpus juncoides) herbicidal ratio grade [1, 6] | C (Monochoria vaginalis) herbicidal ratio grade [2, 6] | A (Echinochloa oryzicola Vasing.) herbicidal ratio grade [3, 6] | P (Stellaria media) herbicidal effect ([4]; application to foliage) | N (Amaranthus retroflexus) herbicidal effect ([5]; application to foliage) | further results |
| --- | --- | --- | --- | --- | --- | --- |
| Cc1nnc(NC(=O)c2ccc(C(F)(F)F)n3c(C(C)C)nnc23)o1 [1-004, 3-Isopropyl-N-(5-methyl-1,3,4-oxadiazol-2-yl)-5-(trifluoromethyl)-[1,2,4]triazolo[4,3-a]pyridine-8-carboxamide] | 3 (Herbicidal ratio of 40% or more and less than 70%) | 4 (Herbicidal ratio of 70% or more and less than 90%) | 4 (Herbicidal ratio of 70% or more and less than 90%) | 5 (Herbicidal ratio of 90% or more (almost completely withered)) | 4 (Herbicidal ratio of 70% or more and less than 90%) | melting point: 176 to 178 °C |
| CSc1nnc2c(C(=O)Nc3nnc(C)o3)ccc(C(F)(F)F)n12 [1-018, N-(5-Methyl-1,3,4-oxadiazol-2-yl)-3-(methylthio)-5-(trifluoromethyl)-[1,2,4]triazol o[4,3-a]pyridine-8-carboxamide] | 2 (Herbicidal ratio of 20% or more and less than 40%) | 0 (Herbicidal ratio of 5% or less (almost no effect)) | 0 (Herbicidal ratio of 5% or less (almost no effect)) | 4 (Herbicidal ratio of 70% or more and less than 90%) | 4 (Herbicidal ratio of 70% or more and less than 90%) | melting point: 230 to 233 °C |
| COCCc1nnc(NC(=O)c2ccc(C(F)(F)F)n3c(C(C)C)nnc23)o1 [1-052] | 1 (Herbicidal ratio of 5% or more and less than 20%) | 0 (Herbicidal ratio of 5% or less (almost no effect)) | 1 (Herbicidal ratio of 5% or more and less than 20%) | 2 (Herbicidal ratio of 20% or more and less than 40%) | 4 (Herbicidal ratio of 70% or more and less than 90%) |  |
| Cc1nnc(NC(=O)c2ccc(C(F)F)n3c(C(C)C)nnc23)o1 [1-053] | 2 (Herbicidal ratio of 20% or more and less than 40%) | 0 (Herbicidal ratio of 5% or less (almost no effect)) | 1 (Herbicidal ratio of 5% or more and less than 20%) | 2 (Herbicidal ratio of 20% or more and less than 40%) | 4 (Herbicidal ratio of 70% or more and less than 90%) |  |
| C=CCSc1nnc2c(C(=O)Nc3nnco3)ccc(C(F)(F)F)n12 [1-128] |  |  |  |  |  | B (Scirpus juncoides) herbicidal ratio grade [1, 7]: 3 (Herbicidal ratio of 40% or more and less than 70%); C (Monochoria vaginalis) herbicidal ratio grade [2, 7]: 0 (Herbicidal ratio of 5% or less (almost no effect)); A (Echinochloa oryzicola Vasing.) herbicidal ratio grade [3, 7]: 1 (Herbicidal ratio of 5% or more and less than 20%); P (Stellaria media) herbicidal effect grade [4, 8]: 5 (Herbicidal ratio of 90% or more (almost completely withered)); N (Amaranthus retroflexus) herbicidal effect grade [5, 8]: 3 (Herbicidal ratio of 40% or more and less than 70%) |
| Cc1cc(C(=O)Nc2nnnn2C)c2nnc(C(C)C)n2c1C(F)(F)F [2-050] |  |  |  |  |  | B (Scirpus juncoides) herbicidal ratio grade [1, 9]: 0 (Herbicidal ratio of 5% or less (almost no effect)); C (Monochoria vaginalis) herbicidal ratio grade [2, 9]: 2 (Herbicidal ratio of 20% or more and less than 40%); A (Echinochloa oryzicola Vasing.) herbicidal ratio grade [3, 9]: 1 (Herbicidal ratio of 5% or more and less than 20%); P (Stellaria media) herbicidal effect grade ([4]; 192 g/ha): 3 (Herbicidal ratio of 40% or more and less than 70%); N (Amaranthus retroflexus) herbicidal effect grade ([5]; 192 g/ha): 2 (Herbicidal ratio of 20% or more and less than 40%) |
| CCN(C)c1nnc2c(C(=O)Nc3nnnn3C)ccc(C(F)(F)F)n12 [2-088] |  |  |  |  |  | B (Scirpus juncoides) herbicidal ratio grade [1, 10]: 3 (Herbicidal ratio of 40% or more and less than 70%); C (Monochoria vaginalis) herbicidal ratio grade [2, 10]: 4 (Herbicidal ratio of 70% or more and less than 90%); A (Echinochloa oryzicola Vasing.) herbicidal ratio grade [3, 10]: 4 (Herbicidal ratio of 70% or more and less than 90%); herbicidal effect, P (Stellaria media) [4, 11]: 5 (Herbicidal ratio of 90% or more (almost completely withered)); herbicidal effect, N (Amaranthus retroflexus) [5, 11]: 5 (Herbicidal ratio of 90% or more (almost completely withered)) |
